The values below come from article PMC6911004, “Fragment-based screening identifies molecules targeting the substrate-binding ankyrin repeat domains of tankyrase” (Scientific Reports, 2019).

Structures are written as SMILES. pKd: −log10 of the molar value.

For this assay, the target named is T1, TNKS2 ARC4 (488–649) (Homo sapiens, UniProt Q9H2K2).
T1 construct: The cell was filled with TNKS2 ARC4 (488–649); His6-GST (cleaved yes); made in house; host or cells: E. coli BL21-CodonPlus (DE3)-RIL
T1 sequence (Q9H2K2 488-649): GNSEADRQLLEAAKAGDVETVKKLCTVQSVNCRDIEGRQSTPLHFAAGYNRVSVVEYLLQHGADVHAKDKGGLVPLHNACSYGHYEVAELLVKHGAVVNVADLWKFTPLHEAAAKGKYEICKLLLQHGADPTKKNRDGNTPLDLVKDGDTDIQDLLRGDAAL
The assay can be described thus: Isothermal titration calorimetry (ITC). Format: binding. The following applies: global analysis n = 5. On the procedure:
We next used isothermal titration calorimetry (ITC) to confirm the compound 9:TNKS2 ARC4 binding affinity, titrating the fragment (5 mM, 1% DMSO) into TNKS2 ARC4 (200 μM, 1% DMSO).
An ITC200 instrument (MicroCal) was used, fitted with a twisted syringe needle, stirring at 750 rpm. All solutions were degassed using a ThermoVac before use. The reference cell was filled with buffer (200 μL, 25 mM HEPES-NaOH pH 7.5, 100 mM NaCl, 1 mM TCEP, 1% v/v DMSO). The cell was filled with TNKS2 ARC4 (488–649) (200 μL, 200 μM in identical buffer as above). 20 injections (1 × 0.5 μL, then 19 × 2 μL) of compound 9 (5 mM, 1% v/v DMSO in buffer) were performed, with 180 s between injections. Blank correction was performed by titrating compound into buffer alone (25 mM HEPES-NaOH pH 7.5, 100 mM NaCl, 1 mM TCEP, 1% v/v DMSO) using the same injection protocol as above. The first injections from each run were discarded from data analysis. Data were analysed using Origin software with a one-site binding model. Titrations were repeated n = 5. Global analysis was performed using SEDPHAT software.

As a reminder, the pKd is the Kd on a negative log10 scale, so that one unit is a factor of ten. A low value points to a high Kd. In the case of `O=C(NCc1ccco1)c1ccc2nccnc2c1` [compound 9], the “ITC stoichiometry (N) compound:TNKS2 ARC4” value was 1.1. For the same molecule, the pKd (compound 5 mM into ARC4 200 μM, 1% DMSO) was 2.92.
